Test results: patent US4018895A, “Aryloxyphenylpropylamines in treating depression” (Eli Lilly and Company, priority 1975, dated 1977)
Counter-ions that a name gives are not always drawn. Like-named read-outs stand apart in the source and are kept apart here.

Assays:
[1] = tested on: QRS complex of the electrocardiogram; assay: Electrocardiogram in anesthetized cats after intravenous injection; settings: in words
brain serotonin = assay: Prevention of brain serotonin depletion caused by 4-chloroamphetamine; type: in vivo; settings: rats injected with 4-chloroamphetamine; drug 15 mg./kg. intraperitoneally; 4 hours later
Experimental: Following this injection, the protecting drug was injected at a dose of 15 mg./kg. of rat-weight intraperitoneally and determinations of brain serotonin levels were carried out 4 hours later.

[2] = tested on: hypothermia induced by the injection of reserpine; assay: Reserpine hypothermia reversal test; type: in vivo, mice; settings: Mus musculus, ip, 1 h, Post-60 min., mice, read-out: Percent Antagonism Reserpine; for inhibition in vivo at 1 mg/kg: 1 mg./kg. intraperitoneally; for inhibition in vivo at 3 mg/kg: 3 mg./kg. intraperitoneally; for inhibition in vivo at 0.3 mg/kg: .3 mg./kg. intraperitoneally; for inhibition in vivo at 10 mg/kg: 10 mg./kg. intraperitoneally
Experimental: (§1) The apomorphine hypothermia antagonism test is carried out as follows: mice are injected with a dose of apomorphine known to reduce body temperature approximately 4° C. The compound under test is injected 1/2 hour before the injection of the apomorphine and the temperatures measured 1/2 hour after injection. The degree of antagonism is expressed as a percent reduction (as compared with controls) of the temperature decrease produced by the injection of the apomorphine. The reserpine hypothermia reversal test is carried out as follows: groups of mice are injected with reserpine and 16.5 hours later are injected intraperitoneally with graded doses of the drug, a different dose level being given to each group of mice. Temperatures are measured at 1 hour after injection of the drug under test and again the effectiveness of the drug is expressed as a percentage decrease in the hypothermia induced by the injection of reserpine as compared with the control group. In the tablets which follow, Table 4 gives the results in the apomorphine antagonism and reserpine reversal hypothermia tests for the secondary amines of this invention. In the table, the first column gives the substituent attached to the oxygen atom at the 3 position of the propylamine chain; columns 2 to 4 the percent antagonism against apomorphine hypothermia at dose levels of 0.3, 1 and 3 mg./kg. and columns 5-7 the percent reversal of reserpine hypothermia at the same dose levels.

[3] = tested on: norepinephrine uptake by synaptosomes from rat brain; assay: In vitro blockade of norepinephrine uptake by synaptosomes from rat brain; type: biochemical; settings: norepinephrine 0.48 μM
Excerpt: (§2) This blockade is shown both in vitro with radioactive labelled compounds to determine the amount of monoamine uptake by synaptosomes from rat brain, and in vivo by a variety of methods. Among the physiologically active monoamines whose uptake is blocked by the compounds of this invention are included serotonin, norepinephrine and dopamine (3,4-dihydroxyphenylethylamine). […] Tables 1 and 2 which follow set forth the results of some of the in vitro determinations of the blockage of monoamine uptake by the compounds of this invention. In the tables, column 1 gives the R substituent on the 3-phenylpropylamine and columns 2-4, the concentration in micrograms per ml. that blocks the uptake of a particular amine by 50 percent for the amines--norephinephrine, serotonin, and dopamine. At the head of each column is given the concentration of the particular monoamine used in the experiment.

[4] = tested on: hypothermia induced by the injection of apomorphine; assay: Apomorphine hypothermia antagonism test; type: in vivo, mice
Experimental: as §1, with “The compound under test is injected 1/2 hour before the injection of the apomorphine and the temperatures measured 1/2 hour after injection.” left out

[5] = tested on: dopamine uptake by synaptosomes from rat brain; assay: In vitro blockade of dopamine uptake by synaptosomes from rat brain; type: biochemical; settings: dopamine 0.2 μM
Excerpt: as §2

[6] = tested on: serotonin uptake by synaptosomes from rat brain; assay: In vitro blockade of serotonin uptake by synaptosomes from rat brain; type: biochemical; settings: serotonin 0.1 μM
Excerpt: as §2

[7] = tested on: response rates of pigeons; assay: Operant behavior, fixed-ratio, fixed interval schedule; type: in vivo
Excerpt: In manifesting their psychotropic action, the compounds of this invention also affect the behavior of animals trained in a variety of operant behavior schedules. Again, the activity of compounds of this invention in this type of test parallels that of known antidepressant drugs, particularly desmethylimipramine. […] With pigeons trained under an adjusting ratio schedule, the drugs of this invention affect behavior in the same way as does the marketed antidepressant, desmethylimipramine (DMI). […] The above results are consistent with antidepressant action.

[8] = Table 5, dimethylamino compounds
[9] = Mus musculus, Table 4, secondary amines, 1 mg./kg., Pre-30 min., mice, read-out: Percent Antagonism Apomorphine
[10] = Mus musculus, Table 4, secondary amines, 3 mg./kg., Pre-30 min., mice, read-out: Percent Antagonism Apomorphine
[11] = Mus musculus, Table 5, dimethylamino compounds, 1 mg./kg., Pre-30 min., mice, read-out: Percent Antagonism Apomorphine
[12] = Mus musculus, Table 5, dimethylamino compounds, 3 mg./kg., Pre-30 min., mice, read-out: Percent Antagonism Apomorphine
[13] = Mus musculus, Table 5, dimethylamino compounds, 10 mg./kg., Pre-30 min., mice, read-out: Percent Antagonism Apomorphine

| Structure (SMILES) | inhibition in vivo at 1 mg/kg [2, 8] [%] | inhibition in vivo at 3 mg/kg [2, 8] [%] | inhibition in vivo at 10 mg/kg [2, 8] [%] | inhibition in vivo at 1 mg/kg [4, 11] [%] | inhibition in vivo at 3 mg/kg [4, 12] [%] | inhibition in vivo at 10 mg/kg [4, 13] [%] | Concentration that blocks 50% of amine uptake, Norepinephrine ([3]; Table 1, scaffold drawing 3) | Concentration that blocks 50% of amine uptake, Dopamine ([5]; Table 1, scaffold drawing 3) | Concentration that blocks 50% of amine uptake, Serotonin ([6]; Table 1, scaffold drawing 3) | further results |
| --- | --- | --- | --- | --- | --- | --- | --- | --- | --- | --- |
| COc1ccccc1OC(CCN)c1ccccc1 (centres unmarked) [3-(o-Methoxyphenoxy)-3-phenylpropylamine, 3-(o-methoxyphenoxy)-3-phenylpropylamine] |  |  |  |  |  |  |  |  |  | Effect on the electrocardiogram (widening of the QRS complex) [1]: affects the electrocardiogram similarly, but at far higher doses |
| CN(C)CCCN1c2ccccc2CCc2ccc(Cl)cc21 [chloroimipramine] |  |  |  |  |  |  |  |  |  | Brain serotonin level (brain serotonin): 0.45 ± .03 µg/g |
| CNCCC(Oc1cccc(OC)c1)c1ccccc1.O=C(O)C(=O)O (centres unmarked) [m-anisyl, N-methyl 3-phenyl-3-(m-methoxyphenoxy)propylamine oxalate] | -1 | 6 | 5 | -12 | -7 | -5 |  |  |  | inhibition in vivo at 1 mg/kg ([2]; Table 4, secondary amines): 21%; inhibition in vivo at 3 mg/kg ([2]; Table 4, secondary amines): 21%; inhibition in vivo at 0.3 mg/kg ([2]; Table 4, secondary amines): 8%; Concentration that blocks 50% of amine uptake, Norepinephrine ([3]; Table 2, scaffold drawing 4): .15 µg/mL; inhibition in vivo at 1 mg/kg [4, 9]: 15%; inhibition in vivo at 3 mg/kg [4, 10]: 71%; inhibition in vivo at 0.3 mg/kg ([4]; Mus musculus, Table 4, secondary amines, .3 mg./kg., Pre-30 min., mice, read-out: Percent Antagonism Apomorphine): 15%; Concentration that blocks 50% of amine uptake, Dopamine ([5]; Table 2, scaffold drawing 4): .45 µg/mL; Concentration that blocks 50% of amine uptake, Serotonin ([6]; Table 2, scaffold drawing 4): 4.5 µg/mL |
| CNCCC(Oc1ccccc1OC)c1ccccc1.Cl (centres unmarked) [o-anisyl, N-methyl 3-(o-methoxyphenoxy)-3-phenylpropylamine hydrochloride] |  |  |  |  |  |  |  |  |  | Persistence of the effect on response rates [7]: more than 24 hours; Reduction of apomorphine hypothermia ([4]; 10 mg./kg. dose, measured 60 minutes after injection of the apomorphine): 100% |
| CN(C)CCC(Oc1ccccc1Cl)c1ccccc1.O=C(O)/C=C\C(=O)O (centres unmarked) [o-chlorophenyl, N,N-dimethyl 3-(o-chlorophenoxy)-3-phenylpropylamine maleate] | 3 | 4 | 25 | -10 | -17 | 57 | .45 mcq./ml. | .2 mcq./ml. | .2 mcq./ml. |  |
| CCc1ccccc1OC(CCN(C)C)c1ccccc1.O=C(O)C(=O)O (centres unmarked) [o-ethylphenyl, N,N-dimethyl 3-(o-ethylphenoxy)-3-phenylpropylamine oxalate] | 17 | 13 | 35 |  | 20 | 74 | > 100 mcq./ml. | > 100 mcq./ml. | 3.5 mcq./ml. |  |
| CC(C)c1ccccc1OC(CCN(C)C)c1ccccc1 (centres unmarked) [o-isopropylphenyl, oxalate] | 20 | 28 | 35 |  |  |  | 1.5 mcq./ml. | > 100 mcq./ml. | > 100 mcq./ml. | inhibition in vivo at 0.3 mg/kg [2, 8]: 12%; Percent Antagonism Apomorphine ([4]; Table 5, dimethylamino compounds, 1 mg./kg., Pre-30 min., mice): 17%; Percent Antagonism Apomorphine ([4]; Table 5, dimethylamino compounds, 3 mg./kg., Pre-30 min., mice): 39%; Percent Antagonism Apomorphine ([4]; Table 5, dimethylamino compounds, 10 mg./kg., Pre-30 min., mice): 65%; Percent Antagonism Apomorphine ([4]; Table 5, dimethylamino compounds, .3 mg./kg., Pre-30 min., mice): 3% |
| CCOc1ccccc1OC(CCN(C)C)c1ccccc1.O=C(O)C(=O)O (centres unmarked) [o-phenetyl, N,N-dimethyl 3-(o-ethoxyphenoxy)-3-phenylpropylamine oxalate] |  | 16 | 40 |  | 13 | 76 | 3 mcq./ml. | > 100 mcq./ml. | 6 mcq./ml. |  |
| CN(C)CCC(Oc1ccccc1C(F)(F)F)c1ccccc1.Cc1ccc(S(=O)(=O)O)cc1 (centres unmarked) [o-trifluoromethylphenyl, N,N-dimethyl 3-(o-trifluoromethylphenoxy)-3-phenylpropylamine p-toluene-sulfonate] |  |  | 10 | 21 | 32 | 55 | 70 mcq./ml. | > 100 mcq./ml. | .16 mcq./ml. | inhibition in vivo at 1 mg/kg ([2]; Table 4, secondary amines): 9%; inhibition in vivo at 3 mg/kg ([2]; Table 4, secondary amines): 8%; Concentration that blocks 50% of amine uptake, Norepinephrine ([3]; Table 2, scaffold drawing 4): 6.0 µg/mL; inhibition in vivo at 1 mg/kg [4, 9]: 13%; inhibition in vivo at 3 mg/kg [4, 10]: 28%; Concentration that blocks 50% of amine uptake, Dopamine ([5]; Table 2, scaffold drawing 4): > 100 µg/mL; Concentration that blocks 50% of amine uptake, Serotonin ([6]; Table 2, scaffold drawing 4): 2.5 µg/mL |
| CNCCC(Oc1ccc(C(F)(F)F)cc1)c1ccccc1 (centres unmarked) [p-trifluoromethylphenyl, N-methyl 3-(p-trifluoromethylphenoxy)-3-phenylpropylamine] |  |  |  |  |  |  |  |  |  | Brain serotonin level (brain serotonin): 0.69 ± .02 µg/g |
| CN(C)CCC(Oc1ccccc1)c1ccccc1 (centres unmarked) [phenyl] | 20 | 20 | 49 |  | 3 | 54 | 1 mcq./ml. | .3 mcq./ml. | .6 mcq./ml. |  |
| CN(C)CCC(Oc1cccc2ccccc12)c1ccccc1.O=C(O)/C=C\C(=O)O (stereo not drawn) [α-naphthyl, N,N-dimethyl 3-(α-naphthyloxy)-3-phenylpropylamine maleate] | 15 | 4 | 15 | -17 | -10 | -7 | 3 mcq./ml. | 2.5 mcq./ml. | .03 mcq./ml. |  |
